# Data taken from patent US9428504B2, “7-hydroxy-spiropipiperidine indolinyl antagonists of P2Y1 receptor” (BRISTOL-MYERS SQUIBB COMPANY, priority 2012, dated 2016).
# Structures can show the parent of a compound that is named as a salt.
# What was measured:
# [1] = molecular target: cloned human P2Y1 receptors (Homo sapiens (Human), UniProt P47900); assay: Binding Assay B: Scintillation Proximity Assay (SPA) for P2Y1 binding; settings: SPA, [33P] 2MeS-ADP displacement; read-out: P2Y1 Ki (nM) using binding assay B
# Summary of the method: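 Membranes with ~15 fmol receptor (1.7 μg total protein) incubated with 0.3 nM [^33P]-labelled radioligand for 1 h at room temperature to completion. After centrifugation and removal of aqueous phase, bound radioactivity read by scintillation proximity; inhibition of radioligand binding measured.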
# [2] = system: human platelet rich plasma (PRP); assay: ADP induced platelet aggregation assay; settings: Homo sapiens, Platelet, read-out: PA IC50 (μM) @ 10 μM ADP, platelet aggregation induced by 10 μM ADP, human PRP
# Sequence of cloned human P2Y1 receptors (P47900 whole entry): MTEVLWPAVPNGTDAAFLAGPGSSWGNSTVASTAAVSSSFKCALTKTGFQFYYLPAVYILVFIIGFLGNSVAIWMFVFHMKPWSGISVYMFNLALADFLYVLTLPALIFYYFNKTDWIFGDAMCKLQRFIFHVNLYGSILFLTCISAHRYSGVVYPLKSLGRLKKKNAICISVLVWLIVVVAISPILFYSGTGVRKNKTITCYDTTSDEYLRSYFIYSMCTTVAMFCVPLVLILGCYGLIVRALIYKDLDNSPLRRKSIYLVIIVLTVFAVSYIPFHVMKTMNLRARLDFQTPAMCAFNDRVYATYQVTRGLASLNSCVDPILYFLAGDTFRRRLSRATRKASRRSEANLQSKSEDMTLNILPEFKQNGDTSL
SMILES,Ki [1] [nM],IC50 [2] [µM]
"CC(C)(C)CN1CCC2(CC1)CN(c1ccccc1NC(=O)Nc1csc(C(F)(F)F)n1)c1c(O)ccc(Cl)c12 [Example 63, 1-(2-(4-Chloro-7-hydroxy-1′-neopentylspiro[indoline-3,4′-piperidine]-1-yl)phenyl)-3-(2-(trifluoromethyl)thiazol-4-yl)urea]",4.9,0.4
"CC(C)(C)CN1CCC2(CC1)CN(c1ccccc1NC(=O)Nc1csc(C(F)(F)F)n1)c1c(O)ccc(-c3nc4cc(Cl)ccc4s3)c12 [Example 120, 1-(2-(4-(5-Chlorobenzo[d]thiazol-2-yl)-7-hydroxy-1′-neopentylspiro[indoline-3,4′-piperidin]-1-yl)phenyl)-3-(2-(trifluoromethyl)thiazol-4-yl)urea]",28.5,0.6
"CC(C)(C)CN1CCC2(CC1)CN(c1ccccc1NC(=O)Nc1ccc(C(C)(C)C)cc1)c1c(O)ccc(F)c12 [Example 7, 1-(4-tert-Butylphenyl)-3-(2-(4-fluoro-7-hydroxy-1′-neopentylspiro[indoline-3,4′-piperidine]-1-yl)phenyl)urea]",4,0.6
"CC(C)(C)CN1CCC2(CC1)CN(c1ccccc1NC(=O)Nc1nc3ccc(Cl)cc3s1)c1c(O)c(F)cc(Cl)c12 [Example 98, 1-(2-(4-Chloro-6-fluoro-7-hydroxy-1′-neopentylspiro [indoline-3,4′-piperidine]-1-yl)phenyl)-3-(6-chlorobenzo [d]thiazol-2-yl)urea]",12.8,0.9
"CCSc1nsc(NC(=O)Nc2ccccc2N2CC3(CCN(CC(C)(C)C)CC3)c3c(Cl)ccc(O)c32)n1 [Example 44, 1-(2-(4-Chloro-7-hydroxy-1′-neopentylspiro[indoline-3,4′-piperidine]-1-yl)phenyl)-3-(3-(ethylthio)-1,2,4-thiadiazol-5-yl)urea]",7.3,0.1
"CC(C)(C)CN1CCC2(CC1)CN(c1ccccc1NC(=O)Nc1nc3ccc(Cl)cc3s1)c1c(O)ccc(-c3nc4ccc(F)cc4s3)c12 [Example 145, 1-(6-Chlorobenzo[d]thiazol-2-yl)-3-(2-(4-(6-fluorobenzo[d]thiazol-2-yl)-7-hydroxy-1′-neopentylspiro[indoline-3,4′-piperidin]-1-yl)phenyl)urea]",18.4,0.6
"Cc1ccc2nc(NC(=O)Nc3ccccc3N3CC4(CCN(CC(C)(C)C)CC4)c4c(Cl)c(F)cc(O)c43)sc2c1 [Example 97, 1-(2-(4-Chloro-5-fluoro-7-hydroxy-1′-neopentylspiro [indoline-3,4′-piperidine]-1-yl)phenyl)-3-(6-melhylbenzo [d]thiazol-2-yl)urea]",11.5,0.7
"CC(C)(C)CN1CCC2(CC1)CN(c1ccccc1NC(=O)Nc1nc3ccc(Cl)nc3s1)c1c(O)ccc(-c3nc4ccc(Cl)cc4s3)c12 [Example 125, 1-(2-(4-(6-Chlorobenzo[d]thiazol-2-yl)-7-hydroxy-1′-neopentylspiro[indoline-3,4′-piperidin]-1-yl)phenyl)-3-(5-chlorothiazolo[5,4-b]pyridin-2-yl)urea]",21.6,0.9
"CC(C)(C)CN1CCC2(CC1)CN(c1ccccc1NC(=O)Nc1nc3ccc(F)cc3s1)c1c(O)ccc(-c3nc4c(Cl)cccc4s3)c12 [Example 116, 1-(2-(4-(4-Chlorobenzo[d]thiazol-2-yl)-7-hydroxy-1′-neopentylspiro[indoline-3,4′-piperidin]-1-yl)phenyl)-3-(6-fluorobenzo[b]thiazol-2-yl)urea]",36.2,0.6
"CC(C)(C)CN1CCC2(CC1)CN(c1ccccc1NC(=O)Nc1nc3c(s1)CCCC3)c1c(O)ccc(Cl)c12 [Example 45, 1-(2-(4-Chloro-7-hydroxy-1′-neopentylspiro[indoline-3,4′-piperidine]-1-yl)phenyl)-3-(4,5,6,7-tetrahydrobenzo[d]thiazol-2-yl)urea, TFA]",9.5,0.3
"CC(C)(C)CN1CCC2(CC1)CN(c1ccccc1NC(=O)Nc1ccc(C(C)(C)C)cc1)c1c(O)cccc12 [Example 5, 1-(4-tert-Butylphenyl)-3-(2-(7-hydroxy-1′-neopentylspiro[indoline-3,4′-piperidine]-1-yl)phenyl)urea]",8.3,0.4
"CCN(CC)S(=O)(=O)c1ccc(O)c2c1C1(CCN(CC(C)(C)C)CC1)CN2c1ccccc1NC(=O)Nc1nc2ccc(Cl)cc2s1 [Example 92, 1-(2-(3-(6-Chlorobenzo[d]thiazol-2-yl)ureido)phenyl)-N,N-diethyl-7-hydroxy-1′-neopentylspiro[indoline-3,4′-piperidine]-4-sulfonamide]",15.8,0.5
"CC(C)(C)CN1CCC2(CC1)CN(c1ccccc1NC(=O)Nc1ccc(OC(F)(F)F)cc1)c1c(O)c(F)cc(-c3ccc(C(F)(F)F)cc3)c12 [Example 154, 1-(2-(6-Fluoro-7-hydroxy-1′-neopentyl-4-(4-(trifluoromethyl)phenyl)spiro[indoline-3,4′-piperidine]-1-yl)phenyl)-3-(4-(trifluoromethoxy)phenyl)urea]",38.8,0.4
"CC(C)(C)CN1CCC2(CC1)CN(c1ccccc1NC(=O)Nc1ccc(OC(F)(F)F)cc1)c1c(O)ccc(C#N)c12 [Example 8, 1-(2-(4-Cyano-7-hydroxy-1′-neopentylspiro[indoline-3,4′-piperidine]-1-yl)phenyl)-3-(4-(trifluoromethoxy)phenyl)urea]",5.7,1.1
"CC(C)c1nc(NC(=O)Nc2ccccc2N2CC3(CCN(CC(C)(C)C)CC3)c3c(Cl)ccc(O)c32)cs1 [Example 62, 1-(2-(4-Chloro-7-hydroxy-1′-neopentylspiro[indoline-3,4′-piperidine]-1-yl)phenyl)-3-(2-isopropylthiazol-4-yl)urea]",13,0.8
"CN(C)S(=O)(=O)c1ccc(O)c2c1C1(CCN(CC(C)(C)C)CC1)CN2c1ccccc1NC(=O)Nc1ccc(OC(F)(F)F)cc1 [Example 89, 7-Hydroxy-N,N-dimethyl-1′-neopentyl-1-(2-(3-(4-(trifluoromethoxy)phenyl)ureido)phenyl)spiro[indoline-3,4′-piperidine]-4-sulfonamide]",5.3,0.4
"CC(C)(C)CN1CCC2(CC1)CN(c1ccccc1NC(=O)Nc1ccc(OC(F)(F)F)cc1)c1c(O)cc(F)c(-c3ccc(F)cc3)c12 [Example 155, 1-(2-(5-Fluoro-4-(4-fluorophenyl)-7-hydroxy-1′-neopentylspiro[indoline-3,4′-piperidin]-1-yl)phenyl)-3-(4-(trifluoromethoxy)phenyl)urea]",22.5,0.1
"CC(C)(C)CN1CCC2(CC1)CN(c1ccccc1NC(=O)Nc1ccc(C(F)(F)F)nc1)c1c(O)ccc(C(F)(F)F)c12 [Example 23, 1-(2-(7-Hydroxy-1′-neopentyl-4-(trifluoromethyl)spiro[indoline-3,4′-piperidine]-1-yl)phenyl)-3-(6-(trifluoromethyl)pyridin-3-yl)urea]",8,1.1
"COc1ccc2nc(NC(=O)Nc3ccccc3N3CC4(CCN(CC(C)(C)C)CC4)c4c(F)ccc(O)c43)sc2c1 [Example 36, 1-(2-(4-Fluoro-7-hydroxy-1′-neopentylspiro[indoline-3,4′-piperidine]-1-yl)phenyl)-3-(6-methoxybenzo[d]thiazol-2-yl)urea]",7.9,0.9
"CC(C)(C)CN1CCC2(CC1)CN(c1ccccc1NC(=O)Nc1nc3ccc(Cl)cc3s1)c1c(O)ccc(C(F)(F)F)c12 [Example 21, 1-(6-Chlorobenzo[d]thiazol-2-yl)-3-(2-(7-hydroxy-1′-neopentyl-4-(trifluoromethyl)spiro[indoline-3,4′-piperidine]-1-yl)phenyl)urea]",30.9,0.4
"CC(C)N1CCC2(CC1)CN(c1ccccc1NC(=O)Nc1ccc(OC(F)(F)F)cc1)c1c(O)ccc(C(F)(F)F)c12 [Example 107, 1-(2-(7-Hydroxy-1′-isopropyl-4-(trifluoromethyl)spiro [indoline-3,4′-piperidine]-1-yl)phenyl)-3-(4-(trifluoromethoxy)phenyl) urea]",14.4,0.6
"CC(C)(C)CN1CCC2(CC1)CN(c1ccccc1NC(=O)Nc1ccc(C(F)(F)F)cc1)c1c(O)ccc(F)c12 [Example 37, 1-(2-(4-Fluoro-7-hydroxy-1′-neopentylspiro[indoline-3,4′-piperidine]-1-yl)phenyl)-3-(4-(trifluoromethyl)phenyl)urea]",7.2,1
"CC(C)(C)CN1CCC2(CC1)CN(c1ccccc1NC(=O)Nc1nc3ccc(Cl)nc3s1)c1c(O)cc(F)c(Cl)c12 [Example 101, 1-(2-(4-Chloro-5-fluoro-7-hydroxy-1′-neopentylspiro [indoline-3,4′-piperidin]-1-yl)phenyl)-3-(5-chlorothiazolo[5,4-b]pyridin-2-yl)urea]",12.2,0.9
"CC(C)(C)CN1CCC2(CC1)CN(c1ccccc1NC(=O)Nc1nc3ccc(F)nc3s1)c1c(O)ccc(F)c12 [Example 174, 1-(2-(4-Fluoro-7-hydroxy-1′-neopentylspiro[indoline-3,4′-piperidine]-1-yl)phenyl)-3-(5-fluorothiazolo[5,4-b]pyridin-2-yl)urea]",7,0.2
"CC(C)(C)CN1CCC2(CC1)CN(c1ccccc1NC(=O)Nc1ccc(F)cc1F)c1c(O)ccc(Cl)c12 [Example 54, 1-(2-(4-Chloro-7-hydroxy-1′-neopentylspiro[indoline-3,4′-piperidine]-1-yl)phenyl)-3-(2,4-difluorophenyl)urea]",9.6,1.1
"CC(C)(C)CN1CCC2(CC1)CN(c1ccccc1NC(=O)Nc1csc(Cl)n1)c1c(O)ccc(C#N)c12 [Example 85, l-(2-Chlorothiazol-4-yl)-3-(2-(4-cyano-7-hydroxy-1′-neopentylspiro[indoline-3,4′-piperidine]-1-yl)phenyl)urea]",3.7,0.4
